According to patent US9927437B2, “Treating neurodegenerative disease” (THE BRIGHAM AND WOMEN'S HOSPITAL, INC., priority 2013, dated 2018):

Columns and labels:
[1] = system: EAE NOD mice; assay: EAE in NOD mice, progressive phase (clinical score, histopathology, body weight); type: in vivo; conditions: NOD EAE; i.c.v. 1×10^7 IU lentivirus at day 35
[2] = system: C8-D30 astrocytes; assay: In vitro knock-down with shRNA in C8-D30 astrocytes, LPS/IFNγ activation; type: cell-based, mouse; conditions: lentivirus-delivered shRNA
[3] = system: astrocytes; assay: mRNA expression in astrocytes isolated from EAE NOD mice (nCounter, qPCR); type: in vivo, mouse; conditions: NOD EAE; i.c.v. lentivirus at day 35, qPCR
Protocol: Mononuclear cells were isolated from the CNS as previously described^50 with minor modifications. Naïve and EAE mice were euthanatized, and then subjected to perfusion through the left ventricle with ice-cold sterile PBS. Brains and spinal cord were then removed, minced and enzymatically dissociated with 0.05% (w/v) collagenase type III (Worthington Biochemical), 0.5% Dispase II (Roche Applied Science), 40 μg/ml DNAse I, 20 mM HEPES in HBSS) for 30 min at 37 C to make a suspension of single cells. Enzymes were inactivated with 20 ml of Ca^2+/Mg^2+-free HBSS containing 2 mM EDTA and 20 mM HEPES. The digested tissue was triturated and passed through a […] cell strainer. Cells were centrifuged and resuspended in 30% isotonic Percoll (GE Healthcare) and 40 μg/ml DNAse I, underlined by 70% isotonic Percoll, and centrifuged at 1000×g at 4° C. for 25 min. Cells were collected from the 70%-30% interphase, and sorted by FACS Aria.
These purification procedures are based on previously described dissociation and purification protocols^50,51. Isolated CNS cells, were incubated with anti-Mouse CD16/CD32 for 15 min on ice to block the Fc receptors, and stained with fluorochrome-conjugated antibody for CD11b (M1/70), CD45(90), CD3 (145-2C11), CD4 (GK1.5), and Ly6C (HK1.4), and Biotion-conjugated GSL I—isolectin B4 (Vector labs), CD105 (N418), CD140a (APA5), CD11c (N418), F4/80 (BM8), O4 (O4, Miltenyi Biotec), and CD19 (eBio1D3), and un-conjugated antibodies recognizing mouse MOG (8-18C5, Millipore), O1 (O1), and Galactocerebroside (mGlaC, Millipore). All antibodies were from Ebioscience, unless otherwise mentioned (clone number, when relevant, in parentheses). Cells were washed and incubated PE-conjugated Streptavidin and R-Phycoerythrin AffiniPure F(ab′)2 fragment of Goat Anti-Mouse IgG+IgM (H+L) (Jackson ImmunoResearch laboratories) for 20 min at 4 C in the dark. Cells were washed, incubated with 7-AAD or Fixable Viability Dye eFluor® 450 (if cells were to be used for intracellular staining), for exclusion of dead cells (FIG. S3A), and sorted as following. Microglia were sorted as CD11b^+ cells with low CD45 expression and low Ly6C (CD11b+/CD45^low/Ly6C^low), while the inflammatory monocytes were considered as CD11b^+/Ly6C^high 52. T-cells were sorted as CD3^+CD4^+ cells. Astrocytes were isolated following the depletion of lymphocytes, microglia, monocytes (FIG. S3B), and oligodendrocytes, and lymphocytes (T-cells, B-cells, and NK cells) (FIG. S3C). […] We confirmed that we had isolated a relatively pure populations of astrocytes by qPCR for the astrocyte markers^44,51 gfap, aldh1l1 and aqp4, and found them to be exclusively expressed in the astrocyte fraction (in a similar expression pattern to that of GFP^+ astrocytes sorted from Tg(GFP-hGFAP) FVB transgenic mice^49) (FIG. S3E). We used an additional cohort of markers to explore for presence of immune cells [microglia/monocytes cells—itgam (CD11b), and emr1 (F4/80), dendritic cells—itgax (CD11c), NK cells—Klrb1c (Nk1.1), T-cells—cd3, and B-cells—cd19], oligodendrocytes (mog, mbp), and neurons (syt1, snap25) (FIG. S3F, G).
100-200 ng of total RNA was hybridized with reporter and capture probes for nCounter Gene Expression code sets (Mouse Inflammation Kit, or a custom made astrocyte-oriented probe set (Table S1)), according to manufacturer's instructions (NanoString Technologies). Data were normalized to spiked positive controls and housekeeping genes (nSolver Analysis system). Transcript counts less than the mean of the negative control transcripts plus 2 standard deviations for each sample were considered background.
Nanostring generated gene expression data were analyzed by use of the Expander 6.06 platform^53. Genes were clustered using the unbiased CLICK algorithm, and each cluster was further analyzed for enrichments in transcription factors binding sites (promoter analysis).

[4] = system: B4GALT5/6; assay: Quantification of LacCer levels in the CNS (LC-MS/MS); type: in vivo, mouse; conditions: NOD EAE; i.c.v. 1×10^7 IU lentivirus at day 35, 10 days after injection
Protocol: Chemical standards of LacCer (d18:1/16:0) and LacCer (d18:1/18:0) were obtained from Avanti Polar Lipids. Quantification of LacCer (d18:1/16:0) and LacCer (d18:1/18:0) was achieved by LC-MS/MS analysis performed on an Agilent (Agilent Technologies, Santa Clara, Calif.) 6460 triple-quadrupole LC/MS/MS system. The fragments from the [M+H]^+ ions for LacCer and internal standard were subjected to collision induced dissociation and the two major types of fragment ions were monitored via electrospray ionization in the positive ion mode in multiple reaction monitoring (MRM) mode for each ion. These two MRM transitions corresponded to the loss of the neutral lactosyl moiety, and to the formation of the lactose ion. Specifically, the MRM transitions used for quantification for LacCer (d18:1/16:0) and LacCer(d18:1/18:0) were 862.5>[…] and 890.6>548.5, respectively. Secondary confirmatory MRM transitions for LacCer(d18:1/16:0) and LacCer(d18:1/18:0) of 862.5>264.3 and 890.6>264.3 were also monitored. Mass spectrometer parameter settings were gas temp (325° C.), gas flow (12 L/min), nebulizer (25 psi), sheath gas temp (400° C.), sheath gas flow (12 L/min), capillary voltage (4000v), and nozzle voltage (500v). Liquid chromatography conditions with an a Phenomenex Gemini C18 column 4.6×50 mm 5 μm particle size was used for separation. Chromatography method the following flow rate=0.4 mLs/min; solvent A=5 mM ammonium formate in 5% MeOH and 0.1% formic acid v/v/v; solvent B=80% 2-propanol, 15% methanol, 5% water and 0.1% formic acid (v/v/v/v). […] Standard curve mixture was analyzed at various concentrations between 0.10 nM to 3.3 μM in LacCer (d18:1/16:0) and an internal standard concentration of 1 μM. The lower limit of quantification was estimated at 1 nM and a R^2 of 0.9969 was obtained using linear regression analysis. […]
The brain tissue was weighed and homogenized using a Dounce homogenizer (VWR), in the extraction solvent using a Bligh and Dyer type liquid-liquid extraction. […] The dried sample was reconstituted in 100 μl of 2:1 chloroform-methanol, and analyzed using the HPLC-MS.

shB4galt5: lentivirus-delivered shRNA against b4galt5 (TRCN0000018782; SEQ ID NO:2) (guide GCAGCCTGAATGACTCAGATTCTCGAGAATCTGAGTCATTCAGGCTGC)
EAE disease progression [1]: but not of b4galt5, suppressed disease progression
up-regulation of h2-Aa, ccl5 and cxcl10 expression [2]: did not affect the expression
b4galt6 and b4galt5 expression in astrocytes [3]: astrocyte-specific knock-down
CNS LacCer levels [4]: but not of b4galt5, led to a significant decrease of CNS LacCer levels
